Key:
androgen receptor = molecular target: T1, androgen receptor (Homo sapiens, UniProt P10275); assay: Androgen receptor binding test; design: expressed in transfected cells; conditions: reference substance 3H-testosterone
T1 sequence (P10275 1-920): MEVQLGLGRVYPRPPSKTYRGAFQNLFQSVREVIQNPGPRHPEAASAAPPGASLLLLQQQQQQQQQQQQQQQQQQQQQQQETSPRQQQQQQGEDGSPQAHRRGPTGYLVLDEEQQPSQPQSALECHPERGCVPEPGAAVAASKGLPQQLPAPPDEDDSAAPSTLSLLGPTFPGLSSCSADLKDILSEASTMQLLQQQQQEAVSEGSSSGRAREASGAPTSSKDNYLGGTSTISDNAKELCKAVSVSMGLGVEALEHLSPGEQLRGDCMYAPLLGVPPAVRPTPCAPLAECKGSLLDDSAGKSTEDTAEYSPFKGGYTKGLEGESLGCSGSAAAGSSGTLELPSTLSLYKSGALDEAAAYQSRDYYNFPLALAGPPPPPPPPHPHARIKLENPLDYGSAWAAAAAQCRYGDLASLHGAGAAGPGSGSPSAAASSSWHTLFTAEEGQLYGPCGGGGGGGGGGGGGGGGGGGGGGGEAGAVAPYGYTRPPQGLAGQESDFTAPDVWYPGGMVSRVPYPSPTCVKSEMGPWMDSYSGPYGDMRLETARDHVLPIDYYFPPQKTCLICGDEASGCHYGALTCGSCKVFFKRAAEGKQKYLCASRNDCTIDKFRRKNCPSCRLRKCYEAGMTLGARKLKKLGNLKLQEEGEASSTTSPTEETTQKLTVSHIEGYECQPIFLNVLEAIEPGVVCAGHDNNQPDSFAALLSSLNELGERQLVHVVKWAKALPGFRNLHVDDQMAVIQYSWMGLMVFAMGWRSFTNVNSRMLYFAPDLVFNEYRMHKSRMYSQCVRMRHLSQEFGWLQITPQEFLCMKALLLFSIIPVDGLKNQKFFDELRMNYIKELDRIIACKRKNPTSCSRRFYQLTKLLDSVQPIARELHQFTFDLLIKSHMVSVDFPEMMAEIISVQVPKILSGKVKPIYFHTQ

[1] = molecular target: T2, mineralocorticoid receptor (Homo sapiens, UniProt P08235); assay: Mineralocorticoid receptor binding test; design: made in house; host or cells: Hi5 insect cells (cytosol); conditions: reference substance 3H-aldosterone, cytosol from MR-expressing insect cells (Hi5)
T2 sequence (P08235 1-984): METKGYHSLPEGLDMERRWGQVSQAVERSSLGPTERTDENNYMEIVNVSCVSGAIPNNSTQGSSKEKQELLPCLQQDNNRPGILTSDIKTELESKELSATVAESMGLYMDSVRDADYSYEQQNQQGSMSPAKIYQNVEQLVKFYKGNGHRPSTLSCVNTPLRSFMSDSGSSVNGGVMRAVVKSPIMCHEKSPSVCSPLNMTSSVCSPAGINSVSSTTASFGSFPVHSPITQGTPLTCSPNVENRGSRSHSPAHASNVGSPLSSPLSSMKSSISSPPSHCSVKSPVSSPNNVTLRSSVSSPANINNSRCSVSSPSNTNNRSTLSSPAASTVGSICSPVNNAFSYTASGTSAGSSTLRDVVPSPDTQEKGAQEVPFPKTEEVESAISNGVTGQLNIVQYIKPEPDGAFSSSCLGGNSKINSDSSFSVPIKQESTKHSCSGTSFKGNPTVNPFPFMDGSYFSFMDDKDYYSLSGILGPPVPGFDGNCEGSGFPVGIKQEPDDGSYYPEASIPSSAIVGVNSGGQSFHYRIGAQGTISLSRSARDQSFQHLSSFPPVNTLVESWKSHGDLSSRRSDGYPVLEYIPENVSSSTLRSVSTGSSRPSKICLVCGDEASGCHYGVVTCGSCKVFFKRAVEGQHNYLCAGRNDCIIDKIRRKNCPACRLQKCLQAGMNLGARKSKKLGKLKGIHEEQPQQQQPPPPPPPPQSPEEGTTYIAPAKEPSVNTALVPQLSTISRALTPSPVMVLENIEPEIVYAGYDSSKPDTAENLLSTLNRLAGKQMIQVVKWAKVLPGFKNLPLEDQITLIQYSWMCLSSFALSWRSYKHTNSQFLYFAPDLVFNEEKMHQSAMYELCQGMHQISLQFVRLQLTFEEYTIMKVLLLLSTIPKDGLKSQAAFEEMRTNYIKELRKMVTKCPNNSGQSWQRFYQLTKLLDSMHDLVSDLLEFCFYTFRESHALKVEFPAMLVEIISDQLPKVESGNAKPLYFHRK
Description: Using cytosol from progesterone receptor-expressing insect cells (Hi5), competitive binding to the progesterone receptor was determined from the ability to displace ^3H-progesterone as reference substance from the receptor.
2. Mineralocorticoid Receptor Binding Test:
The test was carried out as in 1, with the following modifications: cytosol from mineralocorticoid receptor-expressing insect cells (Hi5) was used, and the reference substance was ^3H-aldosterone.

Compound | Androgen receptor Competition factor (androgen receptor) | Mineralocorticoid receptor (MR) Competition factor [1]
C=C[C@@H]1CC2=CC(=O)CC[C@@H]2[C@H]2CC[C@@]3(C)[C@@H]([C@H]4C[C@H]4[C@@]34C=CC(=O)O4)[C@@H]21 [Example 16A, 17β-Hydroxy-7α-vinyl-15α,16α-methylene-19-nor-17α-pregna-4;20(Z)-dien-3-one-21-carboxylic acid γ-lactone] | 2.6 | 2.0
C[C@]12CC[C@H]3[C@H]([C@@H]1[C@H]1C[C@H]1[C@@]21C=CC(=O)O1)[C@H](C1CC1)CC1=CC(=O)CC[C@@H]13 [Example 17A, 17β-Hydroxy-7α-cyclopropyl-15α,16α-methylene-19-nor-17α-pregna-4,20(Z)-dien-3-one-21-carboxylic acid γ-lactone] | 5.2 | 2.6
C[C@]12CC[C@H]3[C@@H](CCC4=C(Cl)C(=O)CC[C@@H]43)[C@@H]1[C@H]1C[C@H]1[C@@]21C=CC(=O)O1 [Example 18, 4-Chloro-17β-hydroxy-15α,16α-methylene-19-nor-17α-pregna-4,20(Z)-dien-3-one-21-carboxylic acid γ-lactone] | 7.3 | 35.0
C[C@]12CC[C@H]3[C@@H](CCC4=CC(=O)CC[C@@H]43)[C@@H]1[C@@H]1C[C@@H]1[C@@]21C=CC(=O)O1 [Example 19, 17β-Hydroxy-15β,16β-methylene-19-nor-17α-pregna-4,20(Z)-dien-3-one-21-carboxylic acid γ-lactone] | 6.4 | 187.0
C[C@]12CC[C@H]3[C@@H](CC4(CC4)C4=CC(=O)CC[C@@H]43)[C@@H]1[C@@H]1C[C@@H]1[C@@]21C=CC(=O)O1 [Example 22, 6,6-(1,2-Ethanediyl)-17β-hydroxy-15β,16β-methylene-19-nor-17α-pregna-4,20(Z)dien-3-one-21-carboxylic acid γ-lactone] | 2.0 | 0.8
C[C@@H]1CC2=CC(=O)CC[C@@H]2[C@H]2CC[C@@]3(C)[C@@H]([C@@H]4C[C@@H]4[C@@]34C=CC(=O)O4)[C@@H]21 [Example 23A, 17β-Hydroxy-7α-methyl-15β,16β-methylene-19-nor-17α-pregna-4,20(2)-dien-3-one-21-carboxylic acid γ-lactone] | 4.2 | 1.9
CC[C@@H]1CC2=CC(=O)CC[C@@H]2[C@H]2CC[C@@]3(C)[C@@H]([C@@H]4C[C@@H]4[C@@]34C=CC(=O)O4)[C@H]12 [Example 24A, 7α-Ethyl-17β-hydroxy-15β,16β-methylene-19-nor-17α-pregna-4,20(Z)-dien-3-one-21-carboxylic acid γ-lactone] | 8.1 | 1.9
C=C[C@@H]1CC2=CC(=O)CC[C@@H]2[C@H]2CC[C@@]3(C)[C@@H]([C@@H]4C[C@@H]4[C@@]34C=CC(=O)O4)[C@@H]21 [Example 25A, 17β-Hydroxy-15β,16β-methylene-7α-vinyl-19-nor-17α-pregna-4,20(Z)-dien-3-one-21-carboxylic acid γ-lactone] | 1.4 | 9.4
C[C@]12CC[C@H]3[C@@H](CCC4=C(Cl)C(=O)CC[C@@H]43)[C@@H]1[C@@H]1C[C@@H]1[C@@]21C=CC(=O)O1 [Example 27, 4-Chloro-17β-hydroxy-15β,16β-methylene-19-nor-17α-pregna-4,20(Z)-dien-3-one-21-carboxylic acid γ-lactone] | 36.4 | 47.0

From patent US20110015162A1, “15,16-Methylene-17-hydroxy-19-nor-21-carboxylic acid-steroid Y-lactone derivative, use thereof and medicinal products containing the derivative” (Bayer Schering Pharma Aktiengesellschaft, priority 2007, published 2011)
